The results in this text go back to ChEMBL document CHEMBL4130467, “Isolation and Structural Characterization of Echinocystic Acid Triterpenoid Saponins from the Australian Medicinal and Food Plant Acacia ligulata” (J Nat Prod, 2017).

One assay concerns HFF. The assay can be described thus: Cytotoxicity against HFF assessed as reduction in cell viability after 48 hrs by sulforhodamine B assay. As to conditions: Homo sapiens. Type of assay: cell-based.
Another assay deals with SK-MEL-28. The assay can be described thus: Cytotoxicity against human SK-MEL-28 cells assessed as reduction in cell viability after 48 hrs by sulforhodamine B assay. Type of assay: functional, cell-based. As to conditions: SK-MEL-28, 48 h.

The structures appear in SMILES notation.

Broadly, the IC50 is the point on the concentration scale where inhibition reaches its midpoint. Take `CC(=O)N[C@H]1[C@H](O[C@H]2CC[C@]3(C)[C@H]4CC=C5[C@@H]6CC(C)(C)CC[C@]6(C(=O)O[C@@H]6OC[C@H](O)[C@H](O)[C@H]6O[C@@H]6O[C@@H](C)[C@H](O[C@@H]7O[C@@H](CO)[C@H](O)[C@H]7O)[C@@H](O[C@@H]7OC[C@@H](O)[C@H](O)[C@H]7O)[C@H]6O)[C@H](O)C[C@@]5(C)[C@]4(C)CC[C@H]3C2(C)C)O[C@H](CO)[C@@H](O[C@@H]2O[C@H](CO)[C@@H](O)[C@H](O)[C@H]2O)[C@@H]1O`: the figures for the IC50 with HFF and with SK-MEL-28 were 14.2 µM and 15 µM, respectively.

For `CC(=O)N[C@H]1[C@H](O[C@H]2CC[C@]3(C)[C@H]4CC=C5[C@@H]6CC(C)(C)CC[C@]6(C(=O)O[C@@H]6OC[C@H](O)[C@H](O)[C@H]6O[C@@H]6O[C@@H](C)[C@H](O[C@@H]7O[C@@H](COC(C)=O)[C@H](O)[C@H]7O)[C@@H](O[C@@H]7OC[C@@H](O)[C@H](O)[C@H]7O)[C@H]6O)[C@H](O)C[C@@]5(C)[C@]4(C)CC[C@H]3C2(C)C)O[C@H](CO)[C@@H](O[C@@H]2O[C@H](CO)[C@@H](O)[C@H](O)[C@H]2O)[C@@H]1O`, the half-inhibitory concentration (IC50) in the assay with HFF was 13.4 µM; in the assay on SK-MEL-28, 25 µM.
